Measurements taken from PubChem BioAssay AID2060604 (Molecular Pharmacology Branch, DTP, NCI, 2025).
Several values for one entry are separate records, joined by “and”; a condition that tells them apart may be missing. Identical values can stand only once. One block for each compound: values may come before it.

Tested on: 379773-124-R-J2-PDC complex spheroids, viability % test/control
Assay: Anticancer human tumor 379773-124-R-J2-PDC patient-derived endometrial carcinoma cell line growth inhibition [CLK]
Settings: for viability, T/C: stronger effect = lower value
In short: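 Patient-derived tumor cells grown as complex spheroids with HUVEC endothelial cells and mesenchymal stem cells, treated with drug combinations. Concentrations descend in half-log steps from near clinical Cmax, or from 10 microM if Cmax unknown.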

[1] = curve of first compound, second compound 0.0316 µM
[2] = curve of first compound, second compound 0.1 µM
[3] = curve of first compound, second compound 0.316 µM
[4] = curve of first compound, second compound 1 µM
[5] = curve of first compound, second compound 3.16 µM
[6] = curve of first compound, second compound 10 µM
[7] = second compound 0.0316 µM, first compound 0.0316 µM
[8] = second compound 0.0316 µM, first compound 0.1 µM
[9] = second compound 0.1 µM, first compound 0.0316 µM
[10] = second compound 0.1 µM, first compound 0.1 µM
[11] = second compound 0.316 µM, first compound 0.0316 µM
[12] = second compound 0.316 µM, first compound 0.1 µM
[13] = second compound 1 µM, first compound 0.0316 µM
[14] = second compound 1 µM, first compound 0.1 µM
[15] = second compound 3.16 µM, first compound 0.0316 µM
[16] = second compound 3.16 µM, first compound 0.1 µM
[17] = second compound 10 µM, first compound 0.0316 µM
[18] = second compound 10 µM, first compound 0.1 µM
[19] = second compound 0.0316 µM, first compound 0.316 µM
[20] = second compound 0.0316 µM, first compound 1 µM
[21] = second compound 0.0316 µM, first compound 3.16 µM
[22] = second compound 0.0316 µM, first compound 10 µM
[23] = second compound 0.1 µM, first compound 0.316 µM
[24] = second compound 0.1 µM, first compound 1 µM
[25] = second compound 0.1 µM, first compound 3.16 µM
[26] = second compound 0.1 µM, first compound 10 µM
[27] = second compound 0.316 µM, first compound 0.316 µM
[28] = second compound 0.316 µM, first compound 1 µM
[29] = second compound 0.316 µM, first compound 3.16 µM
[30] = second compound 0.316 µM, first compound 10 µM
[31] = second compound 1 µM, first compound 0.316 µM
[32] = second compound 1 µM, first compound 1 µM
[33] = second compound 1 µM, first compound 3.16 µM
[34] = second compound 1 µM, first compound 10 µM
[35] = second compound 3.16 µM, first compound 0.316 µM
[36] = second compound 3.16 µM, first compound 1 µM
[37] = second compound 3.16 µM, first compound 3.16 µM
[38] = second compound 3.16 µM, first compound 10 µM
[39] = second compound 10 µM, first compound 0.316 µM
[40] = second compound 10 µM, first compound 1 µM
[41] = second compound 10 µM, first compound 3.16 µM
[42] = second compound 10 µM, first compound 10 µM
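Further: compound exposure lasted seven days before the viability readout.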
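Wherever viability, T/C is given: 100% = DMSO vehicle control wells.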

Structure (SMILES): CC1COCCN1c1cc(C2(S(C)(=N)=O)CC2)nc(-c2ccnc3[nH]ccc23)n1 (stereo not given) + CNC(=O)c1ccc(Nc2nc(OC3CCCC3)c3c(-c4ccc5nc(C)oc5c4)c[nH]c3n2)c(OC)c1
IC50 [1]: 1870 nM
IC50 [2]: < 31.6 nM
IC50 [3]: < 31.6 nM
IC50 [4]: < 31.6 nM
IC50 [5]: < 31.6 nM
IC50 [6]: < 31.6 nM
viability, T/C [7]: 78%
viability, T/C [8]: 83.8%
viability, T/C [19]: 86.2%
viability, T/C [20]: 67.2%
viability, T/C [21]: 34.5%
viability, T/C [22]: 9.32%
viability, T/C [9]: 42.7%
viability, T/C [10]: 44.6%
viability, T/C [23]: 36.1%
viability, T/C [24]: 42.7%
viability, T/C [25]: 26%
viability, T/C [26]: 9.26%
viability, T/C [11]: 42.6%
viability, T/C [12]: 38.5%
viability, T/C [27]: 39.1%
viability, T/C [28]: 41.5%
viability, T/C [29]: 30.1%
viability, T/C [30]: 12.7%
viability, T/C [13]: 40.6%
viability, T/C [14]: 36.1%
viability, T/C [31]: 37%
viability, T/C [32]: 36.5%
viability, T/C [33]: 20.5%
viability, T/C [34]: 5.75%
viability, T/C [15]: 27.9%
viability, T/C [16]: 34%
viability, T/C [35]: 31.9%
viability, T/C [36]: 31.4%
viability, T/C [37]: 21.4%
viability, T/C [38]: 5.79%
viability, T/C [17]: 29.7%
viability, T/C [18]: 40.1%
viability, T/C [39]: 28.9%
viability, T/C [40]: 24.9%
viability, T/C [41]: 24.2%
viability, T/C [42]: 4.37%

Structure (SMILES): COc1ccc([C@@H](O)c2cc(-c3ncnc4cc(N5CCOCC5)ccc34)c(F)cc2Cl)nn1 + CN1CCN(c2cc(C(=O)Nc3cc4cc(-c5cnn(C)c5)ccc4cn3)ccn2)CC1
IC50 [1]: 5320 nM
IC50 [2]: 2820 nM
IC50 [3]: < 31.6 nM
IC50 [4]: < 31.6 nM
IC50 [5]: < 31.6 nM
IC50 [6]: < 31.6 nM
viability, T/C [7]: 87.4%
viability, T/C [8]: 80.7%
viability, T/C [19]: 96.9%
viability, T/C [20]: 79.2%
viability, T/C [21]: 71.8%
viability, T/C [22]: 24.4%
viability, T/C [9]: 70.2%
viability, T/C [10]: 76.5%
viability, T/C [23]: 86.2%
viability, T/C [24]: 47%
viability, T/C [25]: 55%
viability, T/C [26]: 19.1%
viability, T/C [11]: 14.9%
viability, T/C [12]: 16.6%
viability, T/C [27]: 16.6%
viability, T/C [28]: 17.7%
viability, T/C [29]: 12.9%
viability, T/C [30]: 5.38%
viability, T/C [13]: 0.1%
viability, T/C [14]: 0.09%
viability, T/C [31]: 0.11%
viability, T/C [32]: 0.05%
viability, T/C [33]: 1.5%
viability, T/C [34]: 0.08%
viability, T/C [15]: 0.65%
viability, T/C [16]: 1.73%
viability, T/C [35]: 0.73%
viability, T/C [36]: 0.06%
viability, T/C [37]: 0.09%
viability, T/C [38]: 0.08%
viability, T/C [17]: 0.49%
viability, T/C [18]: 0.1%
viability, T/C [39]: 0.79%
viability, T/C [40]: 0.11%
viability, T/C [41]: 0.24%
viability, T/C [42]: 0.14%

Structure (SMILES): CC1COCCN1c1cc(C2(S(C)(=N)=O)CC2)nc(-c2ccnc3[nH]ccc23)n1 (stereo not given) + CN1CCN(c2cc(C(=O)Nc3cc4cc(-c5cnn(C)c5)ccc4cn3)ccn2)CC1
IC50 [1]: 2500 nM
IC50 [2]: 2820 nM
IC50 [3]: < 31.6 nM
IC50 [4]: < 31.6 nM
IC50 [5]: < 31.6 nM
IC50 [6]: < 31.6 nM
viability, T/C [7]: 98.2%
viability, T/C [8]: 95.1%
viability, T/C [19]: 80.2%
viability, T/C [20]: 74%
viability, T/C [21]: 42.8%
viability, T/C [22]: 17.2%
viability, T/C [9]: 84.2%
viability, T/C [10]: 75.7%
viability, T/C [23]: 77.5%
viability, T/C [24]: 64.9%
viability, T/C [25]: 49.3%
viability, T/C [26]: 12.5%
viability, T/C [11]: 21.9%
viability, T/C [12]: 26.2%
viability, T/C [27]: 20.1%
viability, T/C [28]: 15.6%
viability, T/C [29]: 10.6%
viability, T/C [30]: 3.29%
viability, T/C [13]: 0.11%
viability, T/C [14]: 0.2%
viability, T/C [31]: 0.96%
viability, T/C [32]: 2.48%
viability, T/C [33]: 0.1%
viability, T/C [34]: 0.06%
viability, T/C [15]: 1.57%
viability, T/C [16]: 1.16%
viability, T/C [35]: 0.14%
viability, T/C [36]: 0.1%
viability, T/C [37]: 0.12%
viability, T/C [38]: 0.1%
viability, T/C [17]: 0.14%
viability, T/C [18]: 0.36%
viability, T/C [39]: 1.74%
viability, T/C [40]: 0.18%
viability, T/C [41]: 3%
viability, T/C [42]: 0.19%

Further lines, with some results ahead:

IC50 [1]: 13.7 nM
IC50 [2]: < 0.316 nM
IC50 [3]: < 0.316 nM
IC50 [4]: < 0.316 nM
IC50 [5]: < 0.316 nM
IC50 [6]: < 0.316 nM
Structure (SMILES): Cn1ncnc1[C@H]1c2n[nH]c(=O)c3cc(F)cc(c23)N[C@@H]1c1ccc(F)cc1 + CNC(=O)c1ccc(Nc2nc(OC3CCCC3)c3c(-c4ccc5nc(C)oc5c4)c[nH]c3n2)c(OC)c1
viability, T/C (second compound 0.0316 µM, first compound 0.000316 µM): 71.4%
viability, T/C (second compound 0.0316 µM, first compound 0.001 µM): 64.9%
viability, T/C (second compound 0.0316 µM, first compound 0.00316 µM): 65.7%
viability, T/C (second compound 0.0316 µM, first compound 0.01 µM): 56.2%
viability, T/C [7]: 34.6%
viability, T/C [8]: 14.7%
viability, T/C (second compound 0.1 µM, first compound 0.000316 µM): 41.1%
viability, T/C (second compound 0.1 µM, first compound 0.001 µM): 35.1%
viability, T/C (second compound 0.1 µM, first compound 0.00316 µM): 26.6%
viability, T/C (second compound 0.1 µM, first compound 0.01 µM): 26.9%
viability, T/C [9]: 17.6%
viability, T/C [10]: 13.1%
viability, T/C (second compound 0.316 µM, first compound 0.000316 µM): 39%
viability, T/C (second compound 0.316 µM, first compound 0.001 µM): 38.5%
viability, T/C (second compound 0.316 µM, first compound 0.00316 µM): 32.1%
viability, T/C (second compound 0.316 µM, first compound 0.01 µM): 27.2%
viability, T/C [11]: 17.1%
viability, T/C [12]: 8.94%
viability, T/C (second compound 1 µM, first compound 0.000316 µM): 39.4%
viability, T/C (second compound 1 µM, first compound 0.001 µM): 30.3%
viability, T/C (second compound 1 µM, first compound 0.00316 µM): 27.8%
viability, T/C (second compound 1 µM, first compound 0.01 µM): 21.5%
viability, T/C [13]: 14%
viability, T/C [14]: 7.18%
viability, T/C (second compound 3.16 µM, first compound 0.000316 µM): 35.4%
viability, T/C (second compound 3.16 µM, first compound 0.001 µM): 31.1%
viability, T/C (second compound 3.16 µM, first compound 0.00316 µM): 24.1%
viability, T/C (second compound 3.16 µM, first compound 0.01 µM): 25.2%
viability, T/C [15]: 16.6%
viability, T/C [16]: 10.1%
viability, T/C (second compound 10 µM, first compound 0.000316 µM): 25.4%
viability, T/C (second compound 10 µM, first compound 0.001 µM): 30.7%
viability, T/C (second compound 10 µM, first compound 0.00316 µM): 23.5%
viability, T/C (second compound 10 µM, first compound 0.01 µM): 19.1%
viability, T/C [17]: 15.1%
viability, T/C [18]: 9.79%

IC50 (curve of compound): > 10000 nM
Structure (SMILES): CC(Nc1ccc2c(c1)OCCn1cc(N3C(=O)OCC3C(F)F)nc1-2)C(N)=O (stereo not given)
viability, T/C (compound 0.0316 µM): 84.9% and 92.7%
viability, T/C (compound 0.1 µM): 93.1% and 85.8%
viability, T/C (compound 0.316 µM): 93.5% and 79.4%
viability, T/C (compound 1 µM): 79% and 87.4%
viability, T/C (compound 3.16 µM): 77.1% and 78.5%
viability, T/C (compound 10 µM): 69.1% and 67.6%
